Results published in patent US11674962B2, “Therapeutic and diagnostic methods for cancer” (Genentech, Inc., priority 2017, dated 2023).

Columns and labels:
[1] = test system: locally advanced or metastatic non-small cell lung cancer (NSCLC); experiment: OAK phase III clinical trial (NCT02008227): atezolizumab vs docetaxel, outcomes by bTMB score and PD-L1 IHC; assay type: in vivo, human
Protocol: A blood-based assay was used to evaluate the association between clinical response to treatment with atezolizumab (MPDL3280A) and blood tumor mutational burden (bTMB) score in patients with non-small cell lung cancer (NSCLC) enrolled in two clinical trials, a phase II clinical trial, POPLAR (Clinical Trial ID No.: NCT01903993), and a phase III clinical trial, OAK (Clinical Trial ID No.: NCT02008227), in which atezolizumab was administered as a monotherapy.
Pre-treatment blood samples from patients with NSCLC who were enrolled in the POPLAR and/or the OAK studies, in which atezolizumab was administered as a monotherapy, were evaluated for bTMB score and/or maximum somatic allele frequency (MSAF).
The OAK (Clinical Trial ID No.: NCT02008227) patient population evaluated for bTMB score consisted of 583 patients. Patients were eligible for enrollment in the OAK study if they had locally advanced or metastatic (e.g., stage IIIB, stage IV, or recurrent) NSCLC; disease progression during or following treatment with a prior platinum-containing regimen for locally advanced, unresectable/inoperable, or metastatic NSCLC, or disease recurrence within 6 months of treatment with a platinum-based adjuvant/neoadjuvant regimen; measurable disease, as defined by RECIST v1.1; and an ECOG performance status of 0 or 1. Participants were randomized to receive either atezolizumab at a dose of 1200 mg intravenously every three weeks or docetaxel 75 mg per square meter (mg/m^2) intravenously every three weeks. Treatment with atezolizumab could be continued as long as participants were experiencing clinical benefit, i.e., in the absence of unacceptable toxicity or symptomatic deterioration attributed to disease progression.
Analysis of bTMB was performed retrospectively. Progression-free survival (PFS) was defined as the time between date of randomization and date of first documented disease progression as assessed by the investigator using RECIST v.1.1 or death from any cause, whichever occurred first. Overall survival (OS) was defined as the time between the date of randomization until death due to any cause. Treatment arms were compared for OS and PFS individually using a univariate Cox regression model without stratification in the biomarker evaluable-population (BEP) and their subgroups or using a stratified (by randomization stratification factors) Cox model in the ITT population. No multiplicity correction was applied to p-values or confidence intervals (CI). Kaplan-Meier methodology was used to estimate median OS and PFS and construct survival curves.
In the OAK ITT population (N=850), 797 samples were available for analysis. Of these samples, 13 were removed for sample contamination >1%; 42 were removed for median exon coverage <800×; and 100 were removed for low MSAF<1%.
The OAK BEP (N=642) included 59 patients with EGFR mutation or ALK rearrangement, and 583 without known alterations.
To identify somatic mutations and calculate a bTMB score, whole blood samples obtained from each patient (collected in EDTA or Streck tubes) were processed through a series of spins to isolate plasma, from which cell free DNA (cfDNA) was extracted for sequencing analysis. Specifically, at least 20 ng purified cfDNA was used for library construction. Next-generation sequencing libraries using fragment barcodes and hybrid capture were constructed to analyze and sequence a pre-determined set of 394 genes that covered approximately 1.125 Mb of the exome. Specifically, purified libraries were hybrid captured using a 394-gene bait set and then further purified, pooled and loaded on an ILLUMINA® HISEQ® 4000 sequencing system. Sequenced libraries were aligned and sorted. In order to accurately call variants at low allele frequencies and minimize artifacts from sequencing, PCR, or DNA damage-related errors, sequenced libraries were processed by a cfDNA computational pipeline that corrected errors via the use of fragment barcodes. […]

[2] = test system: non-small cell lung cancer (NSCLC); experiment: Combined POPLAR and OAK studies: PFS by bTMB score; assay type: in vivo, human; settings: combined BEP of POPLAR and OAK (n=775), reference bTMB score of 14, atezolizumab vs docetaxel
Source text: FIG. 7A is a graph showing the Kaplan-Meier Curve of PFS of the combined BEP of patients (nBEP=775 patients; HR=0.62) in the atezolizumab treatment arm (black) and docetaxel control arm (gray) of the POPLAR and OAK studies, each arm stratified according to bTMB score. Patients with a bTMB score that is greater than, or equal to, a reference bTMB score of 14 are indicated by solid lines (Dx+) and patients with a bTMB that is lower than a reference bTMB score of 14 are indicated by dashed lines (Dx−). […] The time point for each column corresponds to the times shown along the x-axis of the above graph. Patient samples having an MSAF less than 1% were excluded from analysis. Sequence coverage was greater than, or equal to, 800. […]
Analysis of bTMB was performed retrospectively. Progression-free survival (PFS) was defined as the time between date of randomization and date of first documented disease progression as assessed by the investigator using RECIST v.1.1 or death from any cause, whichever occurred first. […]

[3] = OAK BEP with valid bTMB and PD-L1 IHC results, bTMB ≥16, n=156
[4] = OAK, bTMB score subgroup ≥10 (251 patients), atezolizumab vs docetaxel
[5] = OAK, bTMB score subgroup ≥16 (158 patients), atezolizumab vs docetaxel
[6] = OAK, bTMB score subgroup ≥20 (105 patients), atezolizumab vs docetaxel

atezolizumab
OS HR (95% CI) ([1]; OAK BEP with valid bTMB and PD-L1 IHC results, TC3 or IC3, n=103): 0.44 (0.27-0.71)
OS HR (95% CI) [1, 3]: 0.64 (0.44-0.93)
PFS HR (95% CI) [1, 3]: 0.64 (0.46, 0.91)
OS HR (95% CI) ([1]; OAK, BEP (n = 583), atezolizumab vs docetaxel): 0.64
PFS HR (95% CI) ([1]; OAK, IHC− (complementary to TC1/2/3) and bTMB ≥16, n=93): 0.78
PFS HR (95% CI) ([1]; OAK, IHC− (complementary to TC1/2/3 or IC1/2/3) and bTMB ≥16, n=53): 0.68
PFS HR (95% CI) ([1]; OAK, IHC− (complementary to TC2/3) and bTMB ≥16, n=110): 0.69
PFS HR (95% CI) ([1]; OAK, IHC− (complementary to TC2/3 or IC2/3) and bTMB ≥16, n=94): 0.65
PFS HR (95% CI) ([1]; OAK, IHC− (complementary to TC3 or IC3) and bTMB ≥16, n=126): 0.70
OS HR (95% CI) ([1]; OAK, ITT (n = 850), atezolizumab vs docetaxel): 0.73
PFS HR (95% CI) ([1]; OAK, PD-L1 IHC TC0 and IC0 (bTMB evaluable), n=250): 0.95
PFS HR (95% CI) ([1]; OAK, PD-L1 IHC TC1/2/3, IHC+ (bTMB evaluable), n=192): 0.65
PFS HR (95% CI) ([1]; OAK, PD-L1 IHC TC1/2/3 or IC1/2/3, IHC+ (bTMB evaluable), n=328): 0.83
PFS HR (95% CI) ([1]; OAK, PD-L1 IHC TC2/3, IHC+ (bTMB evaluable), n=150): 0.65
PFS HR (95% CI) ([1]; OAK, PD-L1 IHC TC2/3 or IC2/3, IHC+ (bTMB evaluable), n=200): 0.71
PFS HR (95% CI) ([1]; OAK, TC0 and IC0 and bTMB <16, n=197): 1.03
PFS HR (95% CI) ([1]; OAK, TC0 and IC0 and bTMB ≥16, n=53): 0.68
PFS HR (95% CI) ([1]; OAK, TC1/2/3 and bTMB <16, n=129): 0.72
PFS HR (95% CI) ([1]; OAK, TC1/2/3 and bTMB ≥16, n=63): 0.55
PFS HR (95% CI) ([1]; OAK, TC1/2/3 or IC1/2/3 and bTMB <16, n=225): 0.94
PFS HR (95% CI) ([1]; OAK, TC1/2/3 or IC1/2/3 and bTMB ≥16, n=103): 0.65
PFS HR (95% CI) ([1]; OAK, TC2/3 and bTMB <16, n=106): 0.70
PFS HR (95% CI) ([1]; OAK, TC2/3 and bTMB ≥16, n=44): 0.55
PFS HR (95% CI) ([1]; OAK, TC2/3 or IC2/3 and bTMB <16, n=140): 0.73
PFS HR (95% CI) ([1]; OAK, TC2/3 or IC2/3 and bTMB ≥16, n=60): 0.65
PFS HR (95% CI) ([1]; OAK, TC3 or IC3 and bTMB <16, n=73): 0.71
OS HR [1, 4]: 0.69
PFS HR [1, 4]: 0.73
OS HR [1, 5]: 0.64
PFS HR [1, 5]: 0.65
OS HR [1, 6]: 0.65
PFS HR [1, 6]: 0.61
median OS ([1]; OAK, bTMB≥16, per treatment arm): 13.5 months
best overall response rate ([1]; OAK, bTMB≥16 patients, per treatment arm): 21%
PFS HR ([1]; OAK, reference bTMB score of 14 (Dx+, n=188), atezolizumab vs docetaxel): 0.68
PFS HR ([1]; OAK, reference bTMB score of 18 (Dx+, n=132), atezolizumab vs docetaxel): 0.66
PFS HR [2]: 0.62
